In patent US4160095A, “7,8-Didehydro-PGI1 amides” (The Upjohn Company, priority 1978, dated 1979):

Test system: endoperoxide cyclooxygenase (PG synthetase)
Assay: Inhibition of oxygen uptake in the conversion of unsaturated fatty acid to prostaglandin endoperoxides (cyclooxygenase / PG synthetase inhibition, standard in vitro laboratory test)
Type: biochemical
Description: The novel prostacyclin analogs disclosed herein are all inhibitors of endoperoxide cyclooxygenase, an enzyme which converts unsaturated fatty acids (e.g., arachadonic acid) to prostaglandin endoperoxide intermediate (e.g., PGH2). The inhibition of this enzyme (also known as PG synthetase) is established as a standard in vitro laboratory test which measures oxygen uptake in the conversion of the unsaturated fatty acid to the endoperoxides, e.g., [drawing 22]
The efficacy of the novel prostacyclin analogs herein as inhibitors of cyclooxygenase (PG synthetase) is indicated in the following comparison between 2-(acetylozy)benzoic acid (aspirin) and 7,8-didehydro-6β-PGI1, methyl ester:
For further description of PG synthetase inhibition, see Vane, Nature New Biology, 231-232 (1971) and Takeguchi, et al., Prostaglandins 2:169 (1972).

Structure (SMILES) | Percent inhibition of Oxygen Uptake (Concentration 5 × 10^-4 M) | Percent inhibition of Oxygen Uptake (Concentration 5 × 10^-5 M, result in words)
CCCCC[C@H](O)/C=C/[C@@H]1C2=C[C@H](CCCCC(=O)OC)O[C@H]2C[C@H]1O [7,8-Didehydro-6β-PGI methyl ester, 7,8-didehydro-6β-PGI1, methyl ester] | 46% | –
CC(=O)Oc1ccccc1C(=O)O [2-(Acetyloxy)-benzoic acid, 2-(acetyloxy)benzoic acid] | 100% | Inactive
